Laboratory results reported in publication PMC4155488 (Bioorganic & medicinal chemistry letters, 2014).

Columns and labels:
hPDE4B = conditions: read-out: IC50 against hPDE4B; reported; cited from earlier work
TbrPDEB1 [1] = target: T1, TbrPDEB1 (Trypanosoma brucei, UniProt Q8WQX9); conditions: result in words; cited from earlier work
T1 sequence (Q8WQX9 1-930): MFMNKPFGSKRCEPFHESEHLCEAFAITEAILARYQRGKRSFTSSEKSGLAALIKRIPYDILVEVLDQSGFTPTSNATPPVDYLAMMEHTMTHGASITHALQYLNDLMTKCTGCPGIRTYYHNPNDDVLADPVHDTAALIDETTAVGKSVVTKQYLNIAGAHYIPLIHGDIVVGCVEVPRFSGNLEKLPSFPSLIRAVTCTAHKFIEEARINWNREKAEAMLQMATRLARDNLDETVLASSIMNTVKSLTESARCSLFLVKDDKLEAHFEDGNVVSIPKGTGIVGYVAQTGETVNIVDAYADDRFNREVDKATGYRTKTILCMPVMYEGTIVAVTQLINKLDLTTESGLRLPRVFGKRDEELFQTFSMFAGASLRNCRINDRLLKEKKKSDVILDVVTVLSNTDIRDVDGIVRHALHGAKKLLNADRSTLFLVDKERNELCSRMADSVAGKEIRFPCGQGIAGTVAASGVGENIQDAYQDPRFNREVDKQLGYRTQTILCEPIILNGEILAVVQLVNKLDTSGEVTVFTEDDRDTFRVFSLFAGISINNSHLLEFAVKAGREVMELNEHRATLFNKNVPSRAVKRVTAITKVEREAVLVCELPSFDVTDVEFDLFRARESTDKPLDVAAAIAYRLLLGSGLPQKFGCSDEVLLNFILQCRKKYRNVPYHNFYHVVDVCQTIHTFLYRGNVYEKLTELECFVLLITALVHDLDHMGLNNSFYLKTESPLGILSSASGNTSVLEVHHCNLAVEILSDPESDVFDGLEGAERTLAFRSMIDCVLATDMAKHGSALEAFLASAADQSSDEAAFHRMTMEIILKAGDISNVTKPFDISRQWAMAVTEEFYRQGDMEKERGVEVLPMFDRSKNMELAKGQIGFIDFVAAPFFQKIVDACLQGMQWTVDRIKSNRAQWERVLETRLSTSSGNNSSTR

hPDE4 = hPDE4 enzyme inhibition; format: biochemical, human; conditions: read-out: IC50 against hPDE4
TbrPDEB1 [2] = target: T1, TbrPDEB1; test: TbrPDEB1 enzyme inhibition; format: biochemical; conditions: for fold loss in potency (TbrPDEB1): relative to 12b (linker of four methylene groups)

COc1ccc([C@]2(C#N)CC[C@@H](C(=O)O)CC2)cc1OC1CCCC1 [Compound 1, cilomilast]
IC50 (hPDE4B): 84 nM

O=C(Nc1c(Cl)cncc1Cl)c1ccc(OC(F)F)c(OCC2CC2)c1 [Compound 4, roflumilast]
TbrPDEB1 activity (TbrPDEB1 [1]): completely inactive

COc1ccc([C@]2(C#N)CC[C@@H](C(=O)O)CC2)cc1OCc1ccccc1 [Compound 7]
IC50 (hPDE4): 540 nM

COc1ccc([C@]2(C#N)CC[C@@H](C(=O)O)CC2)cc1OCCCCOc1ccccc1 [Compound 12b]
times more active than 1 against TbrPDEB1 (TbrPDEB1 [2]; ratio of TbrPDEB1 IC50 versus compound 1): 17 fold

COc1ccc([C@]2(C#N)CC[C@@H](C(=O)O)CC2)cc1OCCCOc1ccccc1 [Compound 12c]
fold loss in potency (TbrPDEB1) (TbrPDEB1 [2]): ~ 10 fold

COc1ccc([C@]2(C#N)CC[C@@H](C(=O)O)CC2)cc1OCCCCCOc1ccccc1 [Compound 12d]
fold loss in potency (TbrPDEB1) (TbrPDEB1 [2]): ~ 10 fold
